The source of these data is patent US4758555A, “Method for treating convulsions and epilepsy with organic copper compounds” (priority 1986, dated 1988).

Entries after “also recorded” stand apart in the source; their conditions may differ.

Data set [1] is described as follows: Maximal Electroshock Seizure Test. The class given is in vivo, male Carworth Farms #1 mice or Sprague-Dawley rats. To be noted: for Lowest effective dose, MES (Phase I) / ED50 for inhibition of seizures, MES (Phase II): Table X; for ED50 for inhibition of seizures, MES (Phase II): at time of peak activity; for Lowest active dose, MES (Phase I): Table V. For orientation: The maximal electroshock test induces tonic seizures with an electrical stimulus.

Data set [2] in a line: Lethality / acute toxicity (LD50 in 24 hours). To be noted: for Lethality (in words): dose and time given in the source; for Doses causing death in some of the test groups: in vivo.
From the text: Test compounds were either dissolved in 0.9% saline, or suspended in either 30% polyethylene glycol 400 in 0.9% saline or 0.2% suspending agent like polyoxyethylene glycol or Tween 80 in 0.9% saline prior to injection into male Carworth Farms #1 mice or Sprague-Dawley rats.
In Phase I identification of anticonvulsant activity, test compounds were given intraperitoneally (IP) at 30, 100, 300 and, in some cases, 600 milligrams per kilogram (mg/kg) of body weight and protection against Maximal Electroshock and/or Metrazol-induced seizures was determined 30 minutes, 4 hours, or later. […] Subsequently the routine protocol was modified and certain of the test compounds (see Tables, infra) re-evaluated following subcutaneous (SC) injection at periods of up to 8 hours post injection.
All statistics were obtained by probit analyses.
Data set [3] is described as follows: Anticonvulsant activity, both or unspecified seizure models. Type of data set: in vivo, male Carworth Farms #1 mice or Sprague-Dawley rats. As to conditions: for Time of peak activity (Phase II): Table X, IP, challenge time.
Data set [4] can be described thus: Subcutaneous Pentylenetetrazol (Metrazol) Seizure Threshold Test. The class given is in vivo, male Carworth Farms #1 mice or Sprague-Dawley rats. As to conditions: for Lowest effective dose, Metrazol (Phase I) / ED50 for inhibition of seizures, Metrazol (Phase II): Table X; for Protection against Metrazol-induced seizures (in words): running text; for Lowest active dose, Metrazol (Phase I): Table V; for ED50 for inhibition of seizures, Metrazol (Phase II): at time of peak activity.

Cu(II) Salicylidene-L-valinate: the “Anticonvulsant activity, Maximal Electroshock (Phase I)” value (“Anticonvulsant activity … (Phase I)” below) in data set [1] (Table IV, IP) is reported as “I”; in data set [1] (Table IV, SC) it was “I”. Moreover, the “Lethality (in words)” value in data set [2] is “Lethal at higher doses”; in data set [2] (listed as salicylidene-L-valinate complex), “caused lethality at higher doses”.

With `Nc1ccc(C(=O)[O-])c(O)c1.Nc1ccc(C(=O)[O-])c(O)c1.[Cu+2]` [Cu(II)(4-aminosalicylate)2], in data set [1] (Table II, IP), the “Anticonvulsant activity … (Phase I)” value was “I”. The “Anticonvulsant activity (in words)” value in data set [3] (running text) is reported as “effective in preventing seizures”. In data set [2], the “Doses causing death in some of the test groups” value is “higher than 300 mg/kg” and the “Lethality (in words)” value is given as “Lethal at higher doses”.

In the case of `CC[C@H](C)[C@H](N)C(=O)[O-].CC[C@H](C)[C@H](N)C(=O)[O-].[Cu+2]` [Cu(II)(L-isoleucinate)2], the “Anticonvulsant activity (in words)” value in data set [3] (listed as isoleucine complex) is “inhibited both the Maximal Electroshock and Metrazol-induced seizures in these Phase I tests”; in data set [3] (running text) it was “found to have anticonvulsant activity”. Also, the “Lethality (in words)” value in data set [2] is “Lethal at higher doses”.

Turning to `O.O=C1Nc2ccc(Cl)cc2C(c2ccccc2Cl)=NC1O.O=C1Nc2ccc(Cl)cc2C(c2ccccc2Cl)=NC1O.[Cl-].[Cl-].[Cu+2]` (stereo not shown) [Cu(II)(Lorazepam)2 (Cl)2 H2 O], the “Lowest effective dose, MES (Phase I)” value in data set [1] (IP, challenge time 30 min) is 20 milligrams per kilogram of bod; in data set [1] (IP, challenge time 4 hrs), 30 milligrams per kilogram of bod; in data set [1] (SC, challenge time 30 min), 20 milligrams per kilogram of bod; in data set [1] (SC, challenge time 4 hrs), 100 milligrams per kilogram of bod. For the same compound, in data set [3], the “Onset and duration of anticonvulsant action (in words)” value (shortened to “Onset and duration”) is “rapid onset of action and prolonged duration following intraperitoneal and subcutaneous administration”. The “Anticonvulsant activity (in words)” value in data set [3] (running text) is “appears to be quite active”. The “Lowest effective dose, Metrazol (Phase I)” value in data set [4] (IP, challenge time 30 min) is listed as “I”; in data set [4] (IP, challenge time 4 hrs) it was “I”; in data set [4] (SC, challenge time 30 min), “I”; in data set [4] (SC, challenge time 4 hrs), “I”.

Turning to Cu(II)Carbamazepine(H2 O)2, the “Lowest effective dose, MES (Phase I)” value is reported as 10 milligrams per kilogram of bod in data set [1] (IP, challenge time 30 min); 100 milligrams per kilogram of bod in data set [1] (IP, challenge time 4 hrs); 30 milligrams per kilogram of bod in data set [1] (SC, challenge time 30 min); 100 milligrams per kilogram of bod in data set [1] (SC, challenge time 4 hrs). In data set [3] (running text), the “Anticonvulsant activity (in words)” value is on record as “effective anticonvulsant”. Besides, the “Lowest effective dose, Metrazol (Phase I)” value in data set [4] (IP, challenge time 30 min) is recorded as 30 milligrams per kilogram of bod; in data set [4] (IP, challenge time 4 hrs), “I”; in data set [4] (SC, challenge time 30 min) it was 300 milligrams per kilogram of bod; in data set [4] (SC, challenge time 4 hrs), 300 milligrams per kilogram of bod. Besides, the “Protection against Metrazol-induced seizures (in words)” value in data set [4] is recorded as “did not potentiate Metrazol seizures”.

In the case of `O.O.O.O=C1[N-]C(=O)C(c2ccccc2)(c2ccccc2)N1.O=C1[N-]C(=O)C(c2ccccc2)(c2ccccc2)N1.[Cu+2]` [Cu(II)(Dilantin)2 (H2 O)3], the “ED50 for inhibition of seizures, MES (Phase II)” value in data set [1] (IP) was found to be 13 mg/kg. Besides, the “Lowest effective dose, MES (Phase I)” value in data set [1] (IP, challenge time 30 min) is 30 milligrams per kilogram of bod; in data set [1] (IP, challenge time 4 hrs), 30 milligrams per kilogram of bod. Also, in data set [3], the “Onset and duration” value is “rapid onset and prolonged duration in inhibiting only Maximal Electroshock-induced seizures”. Besides, the “Time of peak effect” value in data set [3] (Phase II) was 4 h. Moreover, in data set [3], the “Time of peak activity (Phase II)” value is 4 h. Besides, the “Anticonvulsant activity (in words)” value in data set [3] (running text) was “did not potentiate but did block both types of seizures”. The “Lowest effective dose, Metrazol (Phase I)” value in data set [4] (IP, challenge time 30 min) is reported as 100 milligrams per kilogram of bod; in data set [4] (IP, challenge time 4 hrs), 100 milligrams per kilogram of bod.

With `Cc1ncc(CO)c(C=N[C@@H](Cc2c[nH]c3ccccc23)C(=O)[O-])c1[O-].O.O.[Cu+2]` [Cu(II)Pyridoxylidene-L-tryptophanate(H2 O)2], the “Lowest active dose, MES (Phase I)” value in data set [1] (IP, challenge time 30 min) is recorded as “I”; in data set [1] (IP, challenge time 4 hrs), “I”. The “Anticonvulsant activity (in words)” value in data set [3] (running text) is “more effective but only protected against the Metrazol-induced seizure”. Besides, the “Lowest active dose, Metrazol (Phase I)” value in data set [4] (IP, challenge time 30 min) is given as 30 mg/kg of body weight; in data set [4] (IP, challenge time 4 hrs), 30 mg/kg of body weight.

Regarding `CCC1(c2ccccc2)C(=O)[N-]C(=O)NC1=O.CCC1(c2ccccc2)C(=O)[N-]C(=O)NC1=O.O.O.O.[Cu+2]` [Cu(II)(Phenobarbital)2 (H2 O)3], the “ED50 for inhibition of seizures, MES (Phase II)” value in data set [1] (IP) turned out to be 16 mg/kg. Further, the “Lowest effective dose, MES (Phase I)” value in data set [1] (IP, challenge time 30 min) is reported as 30 milligrams per kilogram of bod; in data set [1] (IP, challenge time 4 hrs) it was 30 milligrams per kilogram of bod; in data set [1] (SC, challenge time 30 min), 30 milligrams per kilogram of bod; in data set [1] (SC, challenge time 4 hrs), 30 milligrams per kilogram of bod. Also, in data set [3], the “Time of peak activity (Phase II)” value is 2 h. Moreover, the “ED50 for inhibition of seizures, Metrazol (Phase II)” value in data set [4] (IP) is 10 mg/kg. Further, the “Lowest effective dose, Metrazol (Phase I)” value in data set [4] (IP, challenge time 30 min) is given as 5 milligrams per kilogram of bod; in data set [4] (IP, challenge time 4 hrs) it was 5 milligrams per kilogram of bod; in data set [4] (SC, challenge time 30 min), 30 milligrams per kilogram of bod; in data set [4] (SC, challenge time 4 hrs), 30 milligrams per kilogram of bod.

Regarding Cu(II)2 (valproate)4, the “Lowest effective dose, MES (Phase I)” value is “I” in data set [1] (IP, challenge time 30 min); “I” in data set [1] (IP, challenge time 4 hrs); “I” in data set [1] (SC, challenge time 30 min); “I” in data set [1] (SC, challenge time 4 hrs). Besides, the “Protection against Maximal Electroshock-induced seizures (in words)” value in data set [1] (running text) is on record as “ineffective against Maximal Electroshock seizures”. Besides, the “Onset and duration” value in data set [3] was “rapid onset and short duration of activity following intraperitoneal administration; also recorded: prolonged onset of activity at a higher dose following subcutaneous administration”. In addition, the “Lowest effective dose, Metrazol (Phase I)” value is on record as 100 milligrams per kilogram of bod in data set [4] (IP, challenge time 30 min); “I” in data set [4] (IP, challenge time 4 hrs); “I” in data set [4] (SC, challenge time 30 min); 600 milligrams per kilogram of bod in data set [4] (SC, challenge time 4 hrs). Besides, the “Protection against Metrazol-induced seizures (in words)” value in data set [4] is on record as “effective in protecting against Metrazol-induced seizures; also recorded: some inhibitory activity against Metrazol-induced seizures”.

For `CN1C(=O)CN=C(c2ccccc2)c2cc(Cl)ccc21` [Diazepam, reference compound], the ED50 – broadly, the midpoint of the dose-response relation – in data set [1] (Mus musculus, ip, read-out: ED50 for inhibition of seizures, MES (Phase II)) was found to be 19 mg/kg; in data set [4] (Mus musculus, ip, read-out: ED50 for inhibition of seizures, Metrazol (Phase II)) it was 0.17 mg/kg. Further, the “Time of peak activity (Phase II)” value in data set [3] was determined as 1 h.

As to `O=C([O-])c1ccc([N+](=O)[O-])cc1O.O=C([O-])c1ccc([N+](=O)[O-])cc1O.[Cu+2]` [Cu(II)(4-nitrosalicylate)2], in data set [1] (Table II, IP), the “Anticonvulsant activity … (Phase I)” value was “I”. The “Anticonvulsant activity (in words)” value in data set [3] (running text) was “effective in preventing seizures”. The “Doses causing death in some of the test groups” value in data set [2] was “higher than 100 mg/kg”.

For “Cu(II)α-methyl-α-phenylsuccinimide(H2 O)0.75”, the “Lowest effective dose, MES (Phase I)” value in data set [1] (IP, challenge time 30 min) is 100 milligrams per kilogram of bod; in data set [1] (IP, challenge time 4 hrs) it was “I”; in data set [1] (SC, challenge time 30 min) it was 30 milligrams per kilogram of bod; in data set [1] (SC, challenge time 4 hrs) it was 100 milligrams per kilogram of bod. In addition, in data set [3] (running text), the “Anticonvulsant activity (in words)” value is “effective in preventing both types of seizure with rapid onsets of action and prolonged durations of action following subcutaneous and intraperitoneal administration”. In addition, the “Lowest effective dose, Metrazol (Phase I)” value in data set [4] (IP, challenge time 30 min) was 100 milligrams per kilogram of bod; in data set [4] (IP, challenge time 4 hrs), 100 milligrams per kilogram of bod; in data set [4] (SC, challenge time 30 min) it was 30 milligrams per kilogram of bod; in data set [4] (SC, challenge time 4 hrs), 600 milligrams per kilogram of bod.

Turning to `CCC1(c2ccccc2)C(=O)[N-]C(=O)NC1=O.CCC1(c2ccccc2)C(=O)[N-]C(=O)NC1=O.CCC1(c2ccccc2)C(=O)[N-]C(=O)NC1=O.CCC1(c2ccccc2)C(=O)[N-]C(=O)NC1=O.O.O.[Cu+2].[Na+].[Na+]` [Na2 [Cu(II)(Phenobarbital)4](H2 O)2], in data set [1] (IP), the “ED50 for inhibition of seizures, MES (Phase II)” value came to 25 mg/kg. The “Lowest effective dose, MES (Phase I)” value is 30 milligrams per kilogram of bod in data set [1] (IP, challenge time 30 min); 100 milligrams per kilogram of bod in data set [1] (IP, challenge time 4 hrs); 30 milligrams per kilogram of bod in data set [1] (SC, challenge time 30 min); 30 milligrams per kilogram of bod in data set [1] (SC, challenge time 4 hrs). The “Time of peak activity (Phase II)” value in data set [3] came out at 6 h. The “ED50 for inhibition of seizures, Metrazol (Phase II)” value in data set [4] (IP) is listed as 20 mg/kg. The “Lowest effective dose, Metrazol (Phase I)” value in data set [4] (IP, challenge time 30 min) is given as 30 milligrams per kilogram of bod; in data set [4] (IP, challenge time 4 hrs), 100 milligrams per kilogram of bod; in data set [4] (SC, challenge time 30 min), 30 milligrams per kilogram of bod; in data set [4] (SC, challenge time 4 hrs), 100 milligrams per kilogram of bod.

With `CCC1(CCC(C)C)C(=O)[N-]C(=O)NC1=O.CCC1(CCC(C)C)C(=O)[N-]C(=O)NC1=O.CCC1(CCC(C)C)C(=O)[N-]C(=O)NC1=O.CCC1(CCC(C)C)C(=O)[N-]C(=O)NC1=O.O.O.O.O.O.[Cu+2].[Cu+2]` [Cu(II)(Amobarbital)2 (H2 O)2.5], the “ED50 for inhibition of seizures, MES (Phase II)” value in data set [1] (IP) came out at 87 mg/kg. The “Lowest effective dose, MES (Phase I)” value in data set [1] (IP, challenge time 30 min) is 300 milligrams per kilogram of bod; in data set [1] (IP, challenge time 4 hrs), “I”. In data set [3], the “Time of peak activity (Phase II)” value was determined as 0.5 h. The “ED50 for inhibition of seizures, Metrazol (Phase II)” value in data set [4] (IP) turned out to be 87 mg/kg. Moreover, the “Lowest effective dose, Metrazol (Phase I)” value is given as 30 milligrams per kilogram of bod in data set [4] (IP, challenge time 30 min) and “I” in data set [4] (IP, challenge time 4 hrs).
